Test results reported in patent US8362256B2, “Salts of N-[4-(1-cyanocyclopentyl)phenyl]-2-(4-pyridylmethyl)amino-3-pyridinecarboxamide” (Jiangsu Hengrui Medicine Co. Ltd., priority 2008, dated 2013).
Marks after values point to notes of the source that are not given here.

Legend:
[1] = Stability in different conditions, content by HPLC; format: physicochemical
human colon cancer HT-29 = assay: Efficacy on human colon cancer HT-29 transplanted in nude mice; settings: for Weight after Removing Tumor, d0 / TV x ± SD, d0: d0 baseline; for RTV x ± SD / T/C / TV x ± SD, dn: dn 21 days; for Weight after Removing Tumor, dn: dn 21 days after first administration
Method: BALB/cA-nude mice, ♀, 5-6 weeks-old, purchased from Shanghai Slaccas experimental animals limited liability company. […] Rearing environment: SPF grade.
After one week adaption, the experimental animals were subcutaneously inoculated with human colon cancer HT-29 tumor tissues. When the tumors grew to 100-300 mm^3, the animals were randomly divided into several groups. […] Volume of tumors and weight of mice were measured 2-3 times every week, the data of which were recorded. The equation for the calculation of volume of tumors (V) is: V=½×a×b^2 wherein a, b represent length and width, respectively.

[2] = 50 mg/kg p.o. once daily d0-d20
[3] = 100 mg/kg p.o. once daily d0-d20
[4] = 200 mg/kg p.o. once daily d0-d20

## N#CC1(c2ccc(NC(=O)c3cccnc3NCc3ccncc3)cc2)CCCC1 [Mesylate of compound A]
[1]
  stability (conclusion of stability experiments): most stable
[1]; HPLC, initial purity 99.6%
  content after 6 Months Under Light: 99.5%
  content after 6 Months at 60° C.: 98.4%
  content after 6 Months at Room Temperature: 99.5%
Human colon cancer HT-29; [2]
  Weight after Removing Tumor, d0: 16.1 g
  RTV x ± SD: 5.42 ± 1.55
  T/C: 62.5%
  TV x ± SD, dn: 1250 ± 256
  Weight after Removing Tumor, dn: 14.3 g
Human colon cancer HT-29; 50 mg/kg p.o.
  TV x ± SD, d0: 239 ± 49
Human colon cancer HT-29; [3]
  Weight after Removing Tumor, d0: 17.0 g
  RTV x ± SD: 3.78 ± 1.46
  T/C: 43.6^a %
  TV x ± SD, dn: 998 ± 296
  Weight after Removing Tumor, dn: 16.4 g
Human colon cancer HT-29; 100 mg/kg p.o.
  TV x ± SD, d0: 272 ± 37
Human colon cancer HT-29; [4]
  Weight after Removing Tumor, d0: 16.3 g
  RTV x ± SD: 2.21 ± 0.52
  T/C: 25.5^a %
  TV x ± SD, dn: 571 ± 147
  Weight after Removing Tumor, dn: 15.6 g
Human colon cancer HT-29; 200 mg/kg p.o. once daily d0-d20, listed as mesylate of compound A
  T/C: 25.5%
Human colon cancer HT-29; 200 mg/kg p.o.
  TV x ± SD, d0: 260 ± 39
Human colon cancer HT-29; mouse, in vivo, po
  tolerance: well tolerated
